The test system of data set [1] is Lkb1-null cells. Nature of the data set: Array-based viral infection and cell proliferation assay (validation), Lkb1-null. Set-up: species or system mouse. The conditions noted are these: for Growth of Lkb1-wt/Lkb1-null in array-based validation: Table 6; for Null ave-GR: validation, 5 days post infection, alamarBlue. As for the experimental part:
(§1) (C) Validation study. Relative viability of Lkb1-wt and Lkb1-null cells infected with 340 individual hairpins for 5 days. Genes of interest are highlighted by the colors indicated.
(§2) For array-based viral infection and assessment of proliferation, 2.5 μl virus was mixed with 250 cells in 100 μl medium containing 8 μg/ml polybrene per well in 96-well plates. The plates were spun at 2250 rpm/37° C. for 30 min. Immediately after spinning, supernatants were gently aspirated off and 100 μl fresh medium was added to each well of the 96-well plates. After 2 days incubation, medium was gently aspirated off and 100 fresh medium containing 3 μg/ml puromycin was added to each well of the 96-well plates. The plates were back to culture for additional 3 days and then the viable cells were monitored by alamarBlue (Invitrogen) assay according to manufacturer's instructions.
(§3) To identify Lkb1-null-selective essential genes, a synthetic lethal screen was performed using a pooled 40K murine shRNA lentiviral library for each of the Lkb1-wt and Lkb1-null cell lines described above. Relative abundance of shRNAs in each cell line sample was determined by deep-sequencing analysis, and for every shRNA, a log 2 Fold Change (log 2FC) value was calculated from the difference in relative abundance at a late time point after infection versus the initial shRNA-infected sample. An unsupervised hierarchical clustering analysis of the ranked hairpins from the triplicate pooled shRNA library screens of Lkb1-wt and Lkb1-null mouse cancer cells is shown in FIG. 1A. […] The ranked hairpins were collapsed by using two methods, a RIGER analysis (KS t-test based statistics) and a weighted second best analysis to rank genes that selectively impaired proliferation/viability in Lkb1-null cells. A union of 344 genes, identified by the top 100 individual hairpins for 88 genes (Table 1) and the top 200 genes from both the KS (Table 2) and weighted second best (Table 3), was nominated as the initial prioritized list (FIG. 1B). 340 shRNAs, targeting 70 candidate genes from this prioritized list, were chosen for validation (Table 4). The 70 genes consisted of the top 10 candidates from the KS analysis, as well as 60 others involved in a range of biological processes in an attempt to represent all biological categories in the validation process. Validation was performed in an array format with an assay of relatively short duration (5 days post infection) compared to the primary pooled screen (28 days), which should be a more stringent selection, as it required the anti-proliferative effects to manifest in a short time period. […] Dtymk, Check1, and Pdhb are the top 3 candidate genes, each with 3 hairpins that scored in the validation assay (FIG. 1C).

In data set [2] the test system is Chek1. The conditions noted are these: Lkb1-wt 634 cells, normalized to shGFP.
The test system of data set [3] is Lkb1-wt cells. Nature of the data set: Array-based viral infection and cell proliferation assay (validation), Lkb1-wt. Also on record: species or system mouse. The conditions noted are these: 5 days post infection, alamarBlue. As for the experimental part: as §1, §2, §3
Data set [4] concerns Lkb1-null versus Lkb1-wt cell lines. Nature of the data set: Large-scale pooled shRNA library screening (murine 40K pool). In kind it is cell-based, mouse. The conditions noted are these: for Hairpin-rank in pooled shRNA screen: Table 6.
Data set [5] concerns Lkb1-wt (634, 855, and 857) and Lkb1-null (t2, t4, and t5) cells. Nature of the data set: Proliferation assay of shRNA-transduced cells (CellTiter-Glo). In kind it is cell-based, mouse. The conditions noted are these: in vitro, puromycin 3 μg/ml. As for the experimental part: Viable cells were measured daily using Promega's CellTiter-Glo Assay. Two independent sets of transductions into the 6 cell lines were shown: the first set used shGFP, shDtymk-1, and shChek1-4 (upper panels), and the second set used shGFP, shDtymk-3, and shChek1-1 (lower panels).
Lentiviral production and target cell transduction were performed according to previously description (Moffat et al., 2006). Briefly, 293T cells were co-transfected with pLenti-vector, pCMV-dR8.74psPAX2, and pMD2.G using TransIT-LT1 transfection reagent (Mirus). Thirty-six h after transfection, the supernatant was harvested and spun at 3000 rpm/4° C. for 10 min, and then incubated with target cells in the presence of 8 μg/ml polybrene (Sigma) for 24 h. Two days after infection, the cells were collected for further analysis as indicated in the presence of 3 μg/ml Puromycin (Invitrogen).
Cells were plated into 96-well plates at 2000 cells per well in 100 μl, with addition of puromycin at 3 μg/ml for shRNA lentivirus infected cells, or with addition of variable doses of drug for drug treatment effects. Viable cells were measured daily or for a period of up to 3 days either by CellTiter-Glo Luminescent Cell Viability Assay (Promega) or by Cell Counting Kit-8 (CCK-8) (Dojindo) according to the manufacturer's instructions. All proliferation assays were performed in triplicate wells.
Depletion of DTYMK and CHEK1 was confirmed by Western blot (FIG. 11B).

The subject of data set [6] is Lkb1-null t2, t4, and t5 cells. Nature of the data set: dTTP rescue of shDtymk growth phenotype. The data set is classed as cell-based, mouse. The conditions noted are these: 150 μM dTTP. As for the experimental part: (B) Morphology of Lkb1-null t2, t4, and t5 cells transduced with shGFP or shDtymk-1 and then cultured with or without additional 150 μM dTTP in medium for 3 days.
(§4) Next it was determined whether adding dTTP to the media could rescue cell death after Dtymk knockdown. Three Lkb1-null cell lines were transduced with shGFP or shDtymk-1 and then selectively cultured in puromycin medium in the presence or absence of 150 μM dTTP for 3 days (Taricani et al., 2010). […] Expression of DTYMK in the shDtymk-1 cells was not determined because the remaining cells were too few for RNA and protein extraction (FIG. 4B).

The test system of data set [7] is Lkb1-wt and Lkb1-null cells. Nature of the data set: 3H-dTTP incorporation into genomic DNA. The data set is classed as cell-based, mouse. The conditions noted are these: 0.25 μCi 3H-dTTP, 6 h. Here is the method:
Lkb1-wt and Lkb1-null cells were plated into 96 well plates with 4000 cells/well in 100 μL medium for overnight culturing then incubated with 0.25 μCi ^3H-dTTP (Perkin Elmer, NET221H250UC) for 6 h and used 0.25 μCi ^3H-deoxythymidine (Perkin Elmer, NET221H250UC) as positive and 0.25 μCi^3H-dTTP/non-cells (medium alone) as negative controls. Cells were washed with PBS, trypsinized, and DNA was captured with a cell harvester on glass fiber filters Filtermat A (Perkin Elmer, #1450-421), which was then placed into a liquid scintillation counting container for counting on a scintillation beta-counter. The data represent mean±SD for 6 replicates.
as §4

For data set [8], the system named is Lkb1-wt (634 and 857) and Lkb1-null (t2 and t4) tumors. Nature of the data set: Tumor development of shRNA-transduced cells implanted into athymic nude mice. The data set is classed as in vivo. The conditions noted are these: doxycycline treatment for 3 weeks. Here is the method:
(C) 1×10^6 Lkb1-wt (634 and 857) and Lkb1-null (t2 and t4) cells transduced with the indicated shRNA were implanted into athymic nude mice for 3 weeks. Tumor volume (mm^3) was calculated as […]. The data represent mean±SD for 4 mice. Lkb1-wt 634 and Lkb1-null t4 tumors with the indicated shRNAs were shown (D).
To investigate whether reduced expression of Dtymk or Chek1 inhibited tumor development in vivo, Lkb1-wt (634 and 857) and Lkb1-null (t2 and t4) cells transduced with pTetOn-shGFP, pTetOn-shDtymk-3, or pTetOn-shChek1-4 were implanted into athymic nude mice.

Data set [9] concerns Dtymk. Nature of the data set: QPCR analysis of Dtymk knockdown in Lkb1-wt 634 cells. The conditions noted are these: normalized to shGFP.
In data set [10] the test system is Lkb1-null cells. Nature of the data set: In vitro study of combination treatments with AZD7762. The conditions noted are these: data not shown. The data set is classed as cell-based, mouse.
Data set [11] relates to Lkb1-wt (634, 855, and 857) cells. Nature of the data set: Cell proliferation assay with CHEK1 inhibitors (CCK-8), Lkb1-wt. The conditions noted are these: read-out: 50% growth inhibition (GI50) concentration. In kind it is cell-based, mouse.
The test system of data set [12] is Lkb1-null (t2, t4, and t5) cells. Nature of the data set: Cell proliferation assay with CHEK1 inhibitors (CCK-8), Lkb1-null. In kind it is cell-based, mouse. The conditions noted are these: for GI50: read-out: 50% growth inhibition (GI50) concentration.
Data set [13] deals with γH2AX. Nature of the data set: Western blot analysis of γH2AX after CHEK1 inhibitor treatment. In kind it is cell-based. The conditions noted are these: 3 h at the GI50 concentration.

Read-outs that look alike come from different tables or passages of the source.

Consider “shChek1-1: shRNA hairpin GCTGTGAATAGAATAACTGAA targeting Mouse Chek1”, for which, in [1], the “Growth of Lkb1-wt/Lkb1-null in array-based validation” value (shortened to “Growth of Lkb1-wt/Lkb1-null”) amounted to 2.14 and the “Null ave-GR” value was 0.73. Besides, the “mRNA remaining (by qPCR)” value in data set [2] came to 35.50%. Further, in data set [3], the “WT ave-GR” value is given as 1.57. Further, the “Hairpin-rank in pooled shRNA screen” value in data set [4] was found to be 327. Besides, the “cell growth compared to shGFP control, Lkb1-null versus Lkb1-wt” value in [5] is “inhibited Lkb1-null cell growth more strongly than the growth of Lkb1-wt cells”.
With `Cc1cn([C@H]2C[C@H](O)[C@@H](COP(=O)(O)OP(=O)(O)OP(=O)(O)O)O2)c(=O)[nH]c1=O` [dTTP], the “toxicity of dTTP to shGFP-transduced cells” value in [6] is reported as “not to be toxic”. Besides, in data set [6] (3 days), the “growth of shDtymk-transduced Lkb1-null cells with exogenous dTTP” value is listed as “grew as well as shGFP-transduced cells”. The “passage of radiolabeled dTTP through the cell membrane (incorporation into genomic DNA)” value in data set [7] is “passed through the cell membrane”.
Take “shChek1-4: shRNA hairpin GTGGAAGAAGAGTTGTATGAA targeting Mouse Chek1”: in [1], the “Growth of Lkb1-wt/Lkb1-null” value was found to be 2.31 and the “Null ave-GR” value is recorded as 0.30. The “tumor growth of Lkb1-null tumors expressing shRNA versus shGFP and Lkb1-wt tumors” value in data set [8] is listed as “grew significantly slower”. Also, the “mRNA remaining (by qPCR)” value in data set [2] is on record as 30.20%. The “WT ave-GR” value in data set [3] is recorded as 0.70. Also, the “Hairpin-rank in pooled shRNA screen” value in data set [4] is on record as 26693. Further, in [5], the “cell growth compared to shGFP control, Lkb1-null versus Lkb1-wt” value was “inhibited Lkb1-null cell growth more strongly than the growth of Lkb1-wt cells”.
In the case of “shDtymk-3: shRNA hairpin ACGGAACTAGAGGATCACTCT targeting Mouse Dtymk”, the “mRNA remaining (by qPCR)” value in data set [9] is given as 27.80%. For the same compound, in [1], the “Growth of Lkb1-wt/Lkb1-null” value stood at 2.96 and the “Null ave-GR” value is listed as 0.28. Further, in data set [8], the “tumor growth of Lkb1-null tumors expressing shRNA versus shGFP and Lkb1-wt tumors” value is reported as “grew significantly slower”. The “WT ave-GR” value in data set [3] was 0.83. Further, in [4], the “Hairpin-rank in pooled shRNA screen” value is 100. In data set [4] (Top 100 shRNAs, ranked hairpin list of selectively essential hairpins in Lkb1-null background (log2FC)), this compound gave a Hairpin rank of 98. For the same compound, the “cell growth compared to shGFP control, Lkb1-null versus Lkb1-wt” value in data set [5] was “inhibition was stronger in Lkb1-null cells”.
On to `Nc1ccn([C@@H]2O[C@H](CO)[C@@H](O)C2(F)F)c(=O)n1` [Gemcitabine], for which the “synergy with AZD7762 in the treatment of Lkb1-null cells” value in data set [10] was “moderately synergistic”.
Turning to `O=c1[nH]c2ccc(Cl)cc2c(N[C@@H]2CN3CCC2CC3)c1-c1nc2ccccc2[nH]1` [CHIR124], the GI50 in data set [11] (Lkb1-wt cells, mean, 3 days) came to 56 nM; in data set [12] (Lkb1-null cells, mean, 3 days), 19 nM. Besides, the “inhibition of Lkb1-null cells stronger than Lkb1-wt cells” value in data set [12] (GI50 Lkb1-wt versus Lkb1-null) was 3 fold. For the same compound, in data set [13], the “phosphorylation of H2AX (Western blot)” value is reported as “induced phosphorylation of H2AX”.
As to AZD7762, the GI50 in data set [11] came out at 275 nM. For the same compound, in data set [12], the “inhibition of Lkb1-null cells stronger than Lkb1-wt cells” value was 3 fold and the GI50 turned out to be 90 nM.

The values are drawn from patent US20140314791A1, “METHODS OF TREATING CANCER” (DANA-FARBER CANCER INSTITUTE, INC., priority 2012, published 2014).
